Experimental data: patent publication US6737383B1, “Herbicidal oxadiazolidines” (priority 1999, dated 2004)

Columns and labels:
duck salad = assay: Test B flood test duck salad; format: in vivo, Heteranthera limosa
How it was run: (§1)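 Plants were grown to the 2-leaf stage before treatment with test chemical, then held in a greenhouse for twelve to sixteen days. Injury was visually rated against untreated controls on a 0–10 scale, where 0 is no effect and 10 is complete control.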

rice = assay: Test B flood test rice; format: in vivo, Oryza sativa
How it was run: as §1

wheat = assay: Test B pre/postemergence wheat; format: in vivo, Triticum aestivum
How it was run: (§2)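 Herbicidal effect was estimated by eye on a ten-point control scale after plants spent twelve to sixteen days in a greenhouse following soil or foliar treatment. Foliar sprays targeted plants at one to four leaves; all doses were formulated in a non-phytotoxic solvent with surfactant.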

purple nutsedge = assay: Test B pre/postemergence purple nutsedge; format: in vivo, Cyperus rotundus
How it was run: as §2

blackgrass = assay: Test B pre/postemergence blackgrass; format: in vivo, Alopecurus myosuroides
How it was run: as §2

wild oat = assay: Test B pre/postemergence wild oat; format: in vivo, Avena fatua
How it was run: as §2

surinam grass = assay: Test B pre/postemergence surinam grass; format: in vivo, Brachiaria decumbens
How it was run: as §2

smallflower flatsedge = assay: Test B flood test smallflower flatsedge; format: in vivo, Cyperus difformis
How it was run: as §1

bedstraw = assay: Test B pre/postemergence bedstraw; format: in vivo, Galium aparine
How it was run: as §2

giant foxtail = assay: Test B pre/postemergence giant foxtail; format: in vivo, Setaria faberii
How it was run: as §2

velvetleaf = assay: Test B pre/postemergence velvetleaf; format: in vivo, Abutilon theophrasti
How it was run: as §2

corn = assay: Test B pre/postemergence corn; format: in vivo, Zea mays
How it was run: as §2

crabgrass = assay: Test B pre/postemergence crabgrass; format: in vivo, Digitaria sanguinalis
How it was run: as §2

cocklebur = assay: Test B pre/postemergence cocklebur; format: in vivo, Xanthium strumarium
How it was run: as §2

bamyardgrass = assay: Test B flood test barnyardgrass; format: in vivo, Echinochloa crus-galli
How it was run: as §1

morningglory = assay: Test B pre/postemergence morningglory; format: in vivo, Ipomoea hederacea
How it was run: as §2

[1] = Rate 62 g/ha, headed Pre-emergence (flood test species), scale 0 to 10 (0 no effect, 10 complete control)
[2] = Rate 125 g/ha, Pre-emergence, flood test species, scale 0 to 10 where 0 is no effect and 10 is complete control
[3] = Rate 250 g/ha, Pre-emergence, flood-test species, scale 0 to 10, 0 is no effect, 10 is complete control
[4] = Rate 500 g/ha, Pre-emergence, flood test species, scale 0 to 10 (0 no effect, 10 complete control)
[5] = Preemergence, Rate 62 g/ha, scale of 0 to 10 where 0 is no effect and 10 is complete control
[6] = Preemergence, Rate 250 g/ha, scale of 0 to 10 where 0 is no effect and 10 is complete control
[7] = Preemergence, Rate 500 g/ha, scale of 0 to 10 where 0 is no effect and 10 is complete control
[8] = Rate 62 g/ha, Postemergence, scale 0 to 10, 0 no effect, 10 complete control
[9] = Rate 125 g/ha, Postemergence, scale of 0 to 10 where 0 is no effect and 10 is complete control
[10] = Rate 250 g/ha, Postemergence, scale of 0 to 10 where 0 is no effect and 10 is complete control
[11] = Rate 500 g/ha, Postemergence, scale 0 to 10, 0 no effect, 10 complete control

Cc1ccccc1-n1c(=O)on(C(=O)N(c2ccncc2)C(C)C)c1=O [Compound 301]
0: Ducksalad plant response rating (duck salad; [1]) | Ducksalad plant response rating (duck salad; [2]) | Ducksalad plant response rating (duck salad; [3]) | Ducksalad plant response rating (duck salad; [4]) | Rice plant response rating (rice; [1]) | Rice plant response rating (rice; [2]) | Rice plant response rating (rice; [3]) | Rice plant response rating (rice; [4]) | Wheat plant response rating (wheat; [5]) | Wheat plant response rating (0 to 10 scale) (wheat; Preemergence, Rate 125 g/ha) | Wheat plant response rating (wheat; [6]) | Wheat plant response rating (wheat; [7]) | Wheat plant response rating (wheat; [8]) | Wheat plant response rating (wheat; [9]) | Plant response rating, Wheat (wheat; [10]) | Nutsedge plant response rating (purple nutsedge; [5]) | Nutsedge plant response rating (0 to 10 scale) (purple nutsedge; Preemergence, Rate 125 g/ha) | Nutsedge plant response rating (purple nutsedge; [6]) | Nutsedge plant response rating (purple nutsedge; [7]) | Nutsedge plant response rating (purple nutsedge; [8]) | Nutsedge plant response rating (purple nutsedge; [9]) | Plant response rating, Nutsedge (purple nutsedge; [10]) | Blackgrass plant response rating (blackgrass; [5]) | Blackgrass plant response rating (0 to 10 scale) (blackgrass; Preemergence, Rate 125 g/ha) | Blackgrass plant response rating (blackgrass; [6]) | Blackgrass plant response rating (blackgrass; [7]) | Blackgrass plant response rating (blackgrass; [8]) | Blackgrass plant response rating (blackgrass; [9]) | Plant response rating, Blackgrass (blackgrass; [10]) | Blackgrass plant response rating (blackgrass; [11]) | Wild oats plant response rating (wild oat; [5]) | Wild oats plant response rating (0 to 10 scale) (wild oat; Preemergence, Rate 125 g/ha) | Wild oats plant response rating (wild oat; [6]) | Wild oats plant response rating (wild oat; [7]) | Wild oats plant response rating (wild oat; [8]) | Wild oats plant response rating (wild oat; [9]) | Plant response rating, Wild oats (wild oat; [10]) | B. signalgrass plant response rating (surinam grass; [5]) | B. signalgrass plant response rating (0 to 10 scale, 0 is no effect, 10 is complete control) (surinam grass; Preemergence, Rate 125 g/ha) | B. signalgrass plant response rating (surinam grass; [6]) | B. signalgrass plant response rating (surinam grass; [7]) | B. signalgrass plant response rating (surinam grass; [8]) | B. signalgrass plant response rating (surinam grass; [9]) | Plant response rating, B. signalgrass (surinam grass; [10]) | B. signalgrass plant response rating (surinam grass; [11]) | S. Flatsedge plant response rating (smallflower flatsedge; [1]) | S. Flatsedge plant response rating (smallflower flatsedge; [2]) | S. Flatsedge plant response rating (smallflower flatsedge; [3]) | S. Flatsedge plant response rating (smallflower flatsedge; [4]) | Bedstraw plant response rating (bedstraw; [5]) | Bedstraw plant response rating (0 to 10 scale) (bedstraw; Preemergence, Rate 125 g/ha) | Bedstraw plant response rating (bedstraw; [6]) | Bedstraw plant response rating (bedstraw; [7]) | Bedstraw plant response rating (bedstraw; [8]) | Bedstraw plant response rating (bedstraw; [9]) | Giant foxtail plant response rating (giant foxtail; [5]) | Giant foxtail plant response rating (0 to 10 scale) (giant foxtail; Preemergence, Rate 125 g/ha) | Giant foxtail plant response rating (giant foxtail; [6]) | Giant foxtail plant response rating (giant foxtail; [7]) | Giant foxtail plant response rating (giant foxtail; [8]) | Giant foxtail plant response rating (giant foxtail; [9]) | Plant response rating, Giant foxtail (giant foxtail; [10]) | Velvetleaf plant response rating (velvetleaf; [5]) | Velvetleaf plant response rating (0 to 10 scale) (velvetleaf; Preemergence, Rate 125 g/ha) | Velvetleaf plant response rating (velvetleaf; [6]) | Velvetleaf plant response rating (velvetleaf; [7]) | Velvetleaf plant response rating (velvetleaf; [8]) | Velvetleaf plant response rating (velvetleaf; [9]) | Plant response rating, Velvetleaf (velvetleaf; [10]) | Corn plant response rating (corn; [5]) | Corn plant response rating (0 to 10 scale) (corn; Preemergence, Rate 125 g/ha) | Corn plant response rating (corn; [6]) | Corn plant response rating (corn; [7]) | Corn plant response rating (corn; [8]) | Corn plant response rating (corn; [9]) | Plant response rating, Corn (corn; [10]) | Corn plant response rating (corn; [11]) | Crabgrass plant response rating (crabgrass; [5]) | Crabgrass plant response rating (0 to 10 scale) (crabgrass; Preemergence, Rate 125 g/ha) | Crabgrass plant response rating (crabgrass; [6]) | Crabgrass plant response rating (crabgrass; [7]) | Crabgrass plant response rating (crabgrass; [8]) | Crabgrass plant response rating (crabgrass; [9]) | Plant response rating, Crabgrass (crabgrass; [10]) | Cocklebur plant response rating (cocklebur; [5]) | Cocklebur plant response rating (0 to 10 scale) (cocklebur; Preemergence, Rate 125 g/ha) | Cocklebur plant response rating (cocklebur; [6]) | Cocklebur plant response rating (cocklebur; [8]) | Cocklebur plant response rating (cocklebur; [9]) | Plant response rating, Cocklebur (cocklebur; [10]) | Cocklebur plant response rating (cocklebur; [11]) | Barnyardgrass plant response rating (bamyardgrass; [1]) | Barnyardgrass plant response rating (bamyardgrass; [2]) | Barnyardgrass plant response rating (bamyardgrass; [3]) | Barnyardgrass plant response rating (bamyardgrass; [4]) | Morningglory plant response rating (morningglory; [5]) | Morningglory plant response rating (0 to 10 scale) (morningglory; Preemergence, Rate 125 g/ha) | Morningglory plant response rating (morningglory; [6]) | Morningglory plant response rating (morningglory; [7]) | Morningglory plant response rating (morningglory; [8]) | Morningglory plant response rating (morningglory; [9]) | Plant response rating, Morningglory (morningglory; [10])
